Entries after “also recorded” stand apart in the source; their conditions may differ.
Assays:
[1] = high dose, CF; cited from earlier work
[2] = tested on: NF-κB; assay: NF-κB luciferase reporter gene assay in 16HBEo- cell pairs stimulated with PAO1; assay type: cell-based, human; conditions: PAO1 stimulation, FIG. 2
Procedure: Cell lines: 16HBE-S and 16HBE-AS cells were grown in EMEM supplemented with 10% fetal bovine serum, 2 mM L-glutamine, 100 units/100 μg per ml of penicillin-streptomycin and 400 μg/ml G-418 as previously described.
Reporter Gene Assays: Cells were seeded in 24-well tissue culture dishes 24 hours before transfection. 20 ug luciferase plasmid and 10 ug Renilla plasmid were mixed into 2 mls serum-free DMEM. NFκB luciferase and AP-1 plasmids were purchased from BD Biosciences CLONTECH. pRLTK was used as an internal control for transfection efficiency.
300 ul Lipofectamine PLUS reagent (Invitrogen) was mixed with 200 ul serum-free DMEM. The PLUS reagent and plasmid were incubated for 15 minutes at room temperature. 100 ul Lipofectamine was added to 2.4 ml serum-free DMEM.
The lipofectamine and the DNA-PLUS solutions were mixed and incubated for an additional 15 minutes. The transfection mix was diluted into 20 mls of serum-free DMEM. 250 ul of diluted transfection mix was added to each well and the cells were incubated for 3 hours. Cells were lysed and the lysates assayed for luciferase activity.
A final stock concentration of 10 mM troglitazone (Cayman Chemical) was dissolved in DMSO and diluted to various concentrations. DMSO was added to the cells as a control. […]

[3] = tested on: IL-8; assay: IL-8 secretion of cells grown with I172; assay type: cell-based, human; conditions: cells grown with I172, day 3
Procedure: (§1) At three or four weeks, on day 0, cells are switched to submerged culture (liquid-liquid interface, LLI) and treated with either DMSO 1:1000 (vehicle control, normal cells, Sigma, St. Louis, Mo.), or 20 μM CFTRinh-172 (kindly provided by Alan Verkman) prepared in DMSO, and diluted from a 1:1000 stock. Drugs are added to both the basolateral (1 or 2 ml volume, according to filter size) and the apical side (0.35 or 1.5 ml) and media replenished every 24H. […] At day 3, cells were committed to inflammatory stimulation with TNF IL-1 or PAO1 as indicated below. Cells committed to PAO1 stimulation were switched to serum-free media 24H prior PAO1 stimulation, kept in serum-free media until the end of the experiment, and media replenished every 12H during that time. Serum-free media contained 1:1 DMEM-Ham's F-12, pH. 7.2, L-glutamine 2.5 mM, Penicillin/Streptomycin 100 units/100 μg per ml, gentamicin 50 μg/ml, amphotericin B 1.25 μg/ml from Gibco, Invitrogen Corporation, Carlsbad, Calif.; fluconazole 2 μg/ml (DIFLUCON®, Pfizer); transferrin 5 μg/ml, hydrocortisone 5 μM, insulin 5 μg/ml, endothelial cell growth supplement 20 μg/mil, and bovine serum albumin 1 mg/ml from Sigma, St. Louis, Mo. Serum-containing media had the same antibiotics present as the serum-free media. Antibiotics were not present during PAO1 stimulation.

[4] = tested on: RhoA; assay: Activated RhoA in cells grown with I172; assay type: cell-based, human; conditions: cells grown with I172, day 3
Procedure: as §1

[5] = tested on: Smad3; assay: Smad3 expression in cells grown with I172; assay type: cell-based, human; conditions: cells grown with I172, day 3
Procedure: as §1

[6] = tested on: interaction between PPARγ and other transcription factors; assay: Interaction of PPARγ with other transcription factors in well differentiated airway epithelial cells treated with I172; assay type: cell-based, human; conditions: I172 20 uM for 72 hr; particularly following stimulation with TNFα/IL1β
Procedure: Transcription Factor Arrays: TranSignal TF-TF Interaction Array I (Panomics) was processed according to the manufacturer's instructions. Nuclear extracts from 16HBEo-sense and antisense cells were incubated with biotin-labeled double-stranded oligonucleotides. PPARγ was immunoprecipitated with 3 μg of monoclonal antibody and Dynabeads (Dynal), which are magnetic protein G beads. Free cis-elements and non-specific binding proteins were washed away. PPARγ associated biotin-labeled probes were eluted from the beads and hybridized to TranSignal Protein/DNA array membranes. The arrays were blocked and incubated with Streptavidin-HRP and developed with a chemiluminescent detection system.
In order to test the impact of CFTR deficiency on the interaction of PPAR-γ with other transcription factors, we treated well differentiated airway epithelial cells grown at the ALI with I172 (20 uM), an inhibitor of CFTR activity, continuously for 72 hr prior to preparation of nuclear extracts or stimulation. […] This model allows one to compare, in well-differentiated airway epithelial cells that have identical genetic endowment at all loci, the effect of CFTR inhibition on various cellular processes. […] During the course of these experiments, cells from the airways of a patient with CF of genotype ΔF508/ΔF508, obtained at transplant, became available and were cultured at the air-liquid interface.

[7] = tested on: well differentiated airway epithelial cells; conditions: 20 μM I172; cited from earlier work
[8] = tested on: amiloride-sensitive sodium conductance; conditions: cells grown with 20 μM I172; cited from earlier work
[9] = tested on: CF mice challenged with M57-15 P. aeruginosa; assay: Acute Pseudomonas challenge model, CF mice (BAL inflammatory response); assay type: in vivo; conditions: pretreated by gavage, BAL 24 hours after P. aeruginosa challenge
Procedure: Pioglitazone inhibits the inflammatory response in CF mice to acute administration of Pseudomonas: Mice pretreated with pioglitazone or vehicle by gavage, then challenged with prior to challenge with M57-15 P. aeruginosa, underwent BAL for inflammatory response outcome measures 24 hours after challenge. Cell counts, cytokine values, and body weight were recorded. […] CF mice treated with vehicle had marked increase in inflammatory response compared to WT mice treated with vehicle, as previously reported for untreated mice (FIGS. 12-14).
In order to test the therapeutic potential of PPARγ agonists in CF animals, we utilized the acute pseudomonas challenge model in CF and non-CF mice, because it was the closest mimic of the acute pseudomonas challenge applied to the epithelial cells in culture. We administered pioglitazone by gavage because this is one of the two PPARγ agonists available for human use. […] However, the dose used in these studies was high compared to conventional human doses, on a weight basis, and the drug was administered prior to challenge, a luxury that may not be available for many patients with CF.

CC(C)Cc1ccc(C(C)C(=O)O)cc1 (centres unmarked) [ibuprofen]
incidence of gastrointestinal hemorrhage [1]: increased incidence | rate of decline of pulmonary function [1]: slowed

Cc1c(C)c2c(c(C)c1O)CCC(C)(COc1ccc(CC3SC(=O)NC3=O)cc1)O2 (single isomer, unassigned; (+)) [troglitazone, (+)-5[[4-[(3,4-dihydro-6-hydroxy-2,5,7,8-tetramethyl-2H-1-benzopyran-2-yl)methoxy]phenyl]methyl]-2,4thiazolidinedione]
activation of NF-κB driven luciferase activity [2]: significantly inhibited

O=C(O)c1ccc(/C=C2\SC(=S)N(c3cccc(C(F)(F)F)c3)C2=O)cc1 [I172]
basal and stimulated secretion of IL-8 [3]: increased basal and stimulated secretion of IL-8 | activated RhoA [4]: increased activated RhoA | Smad3 expression [5]: decreased Smad3 expression | interaction between PPARγ and other transcription factors [6]: less interaction | cell morphology by electron microscopy [7]: no decrease in cell viability or change in cell morphology | cell viability [7]: no decrease in cell viability; also recorded: without compromising cell viability | amiloride-sensitive sodium conductance [8]: do not display increased amiloride-sensitive sodium conductance

CCc1ccc(CCOc2ccc(CC3SC(=O)NC3=O)cc2)nc1 (centres unmarked) [pioglitazone, 5-[4-[2-(5-ethylpyridin-2-yl)ethoxyl]benzyl]thiazolidine-2,4-dione]
inflammatory response (BAL cell counts, cytokine values, body weight) in CF mice [9]: significant reduction of the inflammatory response; also recorded: In two of the three experiments, pioglitazone limited the inflammatory response; also recorded: significant reduction in inflammatory response

Source: patent US20090118337A1, “Methods and compositions for treating inflammation” (priority 2005, published 2009)
